Reference: ChEMBL document CHEMBL4619710, “Study on structure-activity relationship of vitamin K derivatives: Conversion of the naphthoquinone part into another aromatic ring and evaluation of their neuronal differentiation-inducing activity” (2020)
Active and inactive are the calls of the source. No cut-off for these calls is given here.

Tests used:
Assay type in all cases: functional
[1] = organism: Mus musculus; experiment: Induction of neuronal differentiation of neuronal progenitor cells isolated from embryonic mouse cerebrum assessed as increase in MAP2 mRNA expression at 1 uM by real time PCR analysis
[2] = organism: Mus musculus; experiment: Induction of neuronal differentiation of neuronal progenitor cells isolated from embryonic mouse cerebrum at 1 uM treated every second day for 4 days and measured after 48 hrs by DAPI/MAP2 fluorescent immunostaining based assay
[3] = Induction of neuronal differentiation of neuronal progenitor cells isolated from embryonic mouse cerebrum assessed as increase in MAP2 mRNA expression at 1 uM by real time PCR analysis relative to control

SMILES	Activity [1]	Activity [2]	fold change (FC) [3]
CC(C)=CCC/C(C)=C/CC/C(C)=C/Cc1cccc(C)c1	inactive	inactive	
CC(C)=CCC/C(C)=C/CC/C(C)=C/Cc1ccccc1C	inactive	inactive	
COC1=C(OC)C(=O)C(C/C=C(\C)CC/C=C(\C)CC/C=C(\C)CCC=C(C)C)=C(C)C1=O	Active	Active	
CC1=CC(=O)c2ccccc2C1=O		Active	
CC(C)=CCC/C(C)=C/CC1=C(C)C(=O)C(C)=C(C)C1=O	Active	Active	2
CC(C)=CCC/C(C)=C/CC1=C(C)C(=O)c2ccccc2C1=O	Active	Active	
CC(C)=CCC/C(C)=C/Cc1cccc(C)c1	inactive	inactive	
CC(C)=CCC/C(C)=C/CC/C(C)=C/CC1=C(C)C(=O)C(C)=C(C)C1=O	Active	Active	2
CC(C)=CCC1=C(C)C(=O)c2ccccc2C1=O	Active	Active	
CC(C)=CCC/C(C)=C/Cc1ccccc1C	inactive	inactive	
COC1=C(OC)C(=O)C(C/C=C(\C)CCC=C(C)C)=C(C)C1=O		inactive	
CC(C)=CCC/C(C)=C/CC/C(C)=C/CC1=C(C)C(=O)c2ccccc2C1=O	Active	Active	
COC1=C(OC)C(=O)C(C/C=C(\C)CC/C=C(\C)CCC=C(C)C)=C(C)C1=O		inactive	
